Data from PubChem BioAssay AID308 (DTP/NCI, 2004).
Where “and” joins values, the source holds several entries; their conditions need not be identical. Equal entries are not always repeated. Inconclusive results and toxic doses are left out.

Test system: BDF1 mice, L1210 6-MP/6-TG resistant leukemia ip, survival T/C
Test: NCI In Vivo Anticancer Drug Screen. Data for tumor model L1210 Leukemia resistant to 6-MP and 6-Thioguanine; NSC 755, NSC 752 (intraperitoneal) in B6D2F1 (BDF1) mice
Details: endpoint: mean survival time, higher = longer survival
Procedure: The antitumor activity of compounds was measured in mice bearing transplantable tumors. Survival or tumor size were measured and the results are expressed as the measurement made in the treated group (T) divided by the measurement made in the vehicle treated control group (C). The tumor model used in this assay is L1210 Leukemia resistant to 6-MP and 6-Thioguanine; NSC 755, NSC 752 (intraperitoneal) in B6D2F1 (BDF1) mice

[1] = dose: 12.0 mg/kg/injection, schedule: Q01DX Z (ip), vehicle: saline

CSc1ncnc2c1ncn2C1OC(CO)C(O)C1O (configuration not stated) was tested, and the T/C (dose: 2.0 mg/kg/injection, schedule: Q01DX Z (ip), vehicle: saline) was 117 % of control, the T/C (dose: 3.0 mg/kg/injection, schedule: Q01DX015 (ip), vehicle: saline) was 119 % of control and 121 % of control and the T/C (dose: 4.0 mg/kg/injection, schedule: Q01DX Z (oral), vehicle: saline) was 100 % of control. For the same compound, the T/C (dose: 7.0 mg/kg/injection, schedule: Q01DX015 (ip), vehicle: saline) was 158 % of control, the T/C (dose: 7.0 mg/kg/injection, schedule: Q01DX Z (ip), vehicle: saline) was 151 % of control and the T/C (dose: 8.0 mg/kg/injection, schedule: Q01DX Z (ip), vehicle: saline) was 168 % of control. The T/C (dose: 8.0 mg/kg/injection, schedule: Q01DX Z (oral), vehicle: saline) was 107 % of control, the T/C (dose: 10.0 mg/kg/injection, schedule: Q## X032 (ip), vehicle: saline) was 114 % of control and the T/C (dose: 12.0 mg/kg/injection, schedule: Q01DX001 (ip), vehicle: alkali diluted with saline) was 102 % of control and 103 % of control. For the same compound, the T/C [1] was 175 % of control, the T/C (dose: 12.0 mg/kg/injection, schedule: Q01DX Z (oral), vehicle: saline) was 100 % of control and the T/C (dose: 13.0 mg/kg/injection, schedule: Q02DX008 (ip), vehicle: saline) was 122 % of control. The T/C (dose: 13.0 mg/kg/injection, schedule: Q## X004 (ip), vehicle: saline) was 108 % of control, the T/C (dose: 16.0 mg/kg/injection, schedule: Q01DX015 (ip), vehicle: saline) was 152 % of control and 166 % of control and the T/C (dose: 16.0 mg/kg/injection, schedule: Q01DX Z (ip), vehicle: clinical formulation) was 123 % of control. For the same compound, the T/C (dose: 16.0 mg/kg/injection, schedule: Q01DX Z (ip), vehicle: saline) was 191 % of control, the T/C (dose: 16.0 mg/kg/injection, schedule: Q01DX Z (oral), vehicle: saline) was 111 % of control and the T/C (dose: 18.0 mg/kg/injection, schedule: Q01DX001 (ip), vehicle: alkali diluted with saline) was 116 % of control and 103 % of control. The T/C (dose: 18.0 mg/kg/injection, schedule: Q01DX001 (ip), vehicle: saline) was 112 % of control and 98 % of control, the T/C (dose: 21.0 mg/kg/injection, schedule: Q01DX015 (ip), vehicle: saline) was 159 % of control and the T/C (dose: 24.0 mg/kg/injection, schedule: Q01DX015 (ip), vehicle: saline) was 163 % of control. The T/C (dose: 24.0 mg/kg/injection, schedule: Q01DX Z (ip), vehicle: saline) was 119 % of control, the T/C (dose: 24.0 mg/kg/injection, schedule: Q01DX Z (oral), vehicle: saline) was 113 % of control and 120 % of control and the T/C (dose: 24.0 mg/kg/injection, schedule: Q## X032 (ip), vehicle: saline) was 150 % of control. For the same compound, the T/C (dose: 26.0 mg/kg/injection, schedule: Q01DX001 (ip), vehicle: alkali diluted with saline) was 118 % of control and 111 % of control, the T/C (dose: 26.0 mg/kg/injection, schedule: Q01DX001 (ip), vehicle: saline) was 104 % of control and the T/C (dose: 27.0 mg/kg/injection, schedule: Q01DX001 (ip), vehicle: saline) was 114 % of control and 108 % of control. The T/C (dose: 32.0 mg/kg/injection, schedule: Q01DX Z (ip), vehicle: saline) was 121 % of control, the T/C (dose: 32.0 mg/kg/injection, schedule: Q01DX Z (oral), vehicle: saline) was 120 % of control and 106 % of control and the T/C (dose: 32.0 mg/kg/injection, schedule: Q## X032 (ip), vehicle: saline) was 152 % of control and 158 % of control. For the same compound, the T/C (dose: 36.0 mg/kg/injection, schedule: Q01DX015 (ip), vehicle: saline) was 114 % of control, the T/C (dose: 37.0 mg/kg/injection, schedule: Q01DX Z (ip), vehicle: saline) was 95 % of control and the T/C (dose: 40.0 mg/kg/injection, schedule: Q01DX001 (ip), vehicle: alkali diluted with saline) was 119 % of control and 106 % of control. For the same compound, the T/C (dose: 40.0 mg/kg/injection, schedule: Q01DX001 (ip), vehicle: saline) was 117 % of control and 98 % of control and 108 % of control, the T/C (dose: 44.0 mg/kg/injection, schedule: Q02DX008 (ip), vehicle: saline) was 158 % of control and the T/C (dose: 45.0 mg/kg/injection, schedule: Q01DX015 (ip), vehicle: saline) was 92 % of control and 94 % of control. For the same compound, the T/C (dose: 45.0 mg/kg/injection, schedule: Q## X004 (ip), vehicle: saline) was 157 % of control, the T/C (dose: 48.0 mg/kg/injection, schedule: Q01DX Z (ip), vehicle: saline) was 96 % of control and the T/C (dose: 48.0 mg/kg/injection, schedule: Q01DX Z (oral), vehicle: saline) was 95 % of control and 103 % of control. The T/C (dose: 48.0 mg/kg/injection, schedule: Q## X032 (ip), vehicle: saline) was 164 % of control and 171 % of control, the T/C (dose: 50.0 mg/kg/injection, schedule: Q01DX Z (ip), vehicle: saline) was 90 % of control and the T/C (dose: 54.0 mg/kg/injection, schedule: Q01DX001 (ip), vehicle: saline) was 109 % of control. The T/C (dose: 60.0 mg/kg/injection, schedule: Q01DX001 (ip), vehicle: saline) was 119 % of control and 107 % of control, the T/C (dose: 61.0 mg/kg/injection, schedule: Q01DX001 (ip), vehicle: alkali diluted with saline) was 113 % of control and the T/C (dose: 61.0 mg/kg/injection, schedule: Q01DX001 (ip), vehicle: saline) was 113 % of control. The T/C (dose: 67.0 mg/kg/injection, schedule: Q## X004 (ip), vehicle: saline) was 162 % of control, the T/C (dose: 72.0 mg/kg/injection, schedule: Q## X032 (ip), vehicle: saline) was 165 % of control and 166 % of control and the T/C (dose: 81.0 mg/kg/injection, schedule: Q01DX001 (ip), vehicle: saline) was 124 % of control. The T/C (dose: 90.0 mg/kg/injection, schedule: Q01DX001 (ip), vehicle: saline) was 109 % of control, the T/C (dose: 92.0 mg/kg/injection, schedule: Q01DX001 (ip), vehicle: alkali diluted with saline) was 123 % of control and 111 % of control and the T/C (dose: 100.0 mg/kg/injection, schedule: Q02DX008 (ip), vehicle: saline) was 99 % of control. The T/C (dose: 100.0 mg/kg/injection, schedule: Q## X004 (ip), vehicle: saline) was 170 % of control, the T/C (dose: 108.0 mg/kg/injection, schedule: Q## X032 (ip), vehicle: saline) was 116 % of control and 98 % of control and the T/C (dose: 138.0 mg/kg/injection, schedule: Q01DX001 (ip), vehicle: alkali diluted with saline) was 116 % of control. For the same compound, the T/C (dose: 138.0 mg/kg/injection, schedule: Q01DX001 (ip), vehicle: saline) was 118 % of control, the T/C (dose: 150.0 mg/kg/injection, schedule: Q## X004 (ip), vehicle: saline) was 164 % of control and the T/C (dose: 207.0 mg/kg/injection, schedule: Q01DX001 (ip), vehicle: alkali diluted with saline) was 119 % of control and 124 % of control. The T/C (dose: 300.0 mg/kg/injection, schedule: Q01DX001 (ip), vehicle: saline) was 111 % of control.
Cn1c(O)c(N=NC(N)=S)c2ccccc21 was tested, and the T/C (dose: 25.0 mg/kg/injection, schedule: Q01DX Z (ip), vehicle: carboxymethylcellulose (CMC)) was 100 % of control, the T/C (dose: 50.0 mg/kg/injection, schedule: Q01DX Z (ip), vehicle: carboxymethylcellulose (CMC)) was 105 % of control and the T/C (dose: 100.0 mg/kg/injection, schedule: Q01DX Z (ip), vehicle: carboxymethylcellulose (CMC)) was 104 % of control. For the same compound, the T/C (dose: 200.0 mg/kg/injection, schedule: Q01DX Z (ip), vehicle: carboxymethylcellulose (CMC)) was 88 % of control.
With O=C(OCC1OC(n2cnc3c(=S)nc[nH]c32)C(OC(=O)c2ccc([N+](=O)[O-])cc2)C1OC(=O)c1ccc([N+](=O)[O-])cc1)c1ccc([N+](=O)[O-])cc1 (configuration not stated) the T/C (dose: 6.25 mg/kg/injection, schedule: Q01DX015 (ip), vehicle: other) was 94 % of control, the T/C (dose: 12.5 mg/kg/injection, schedule: Q01DX015 (ip), vehicle: other) was 105 % of control and the T/C (dose: 25.0 mg/kg/injection, schedule: Q01DX015 (ip), vehicle: other) was 88 % of control. The T/C (dose: 50.0 mg/kg/injection, schedule: Q01DX Z (ip), vehicle: other) was 92 % of control and the T/C (dose: 400.0 mg/kg/injection, schedule: Q01DX Z (ip), vehicle: other) was 86 % of control.
In the case of S=P(N1CCOCC1)(N1CC1)N1CC1, the T/C (dose: 1.87 mg/kg/injection, schedule: Q01DX Z (ip), vehicle: carboxymethylcellulose (CMC)) is reported as 90 % of control, the T/C (dose: 2.5 mg/kg/injection, schedule: Q01DX Z (ip), vehicle: carboxymethylcellulose (CMC)) is reported as 93 % of control and the T/C (dose: 3.75 mg/kg/injection, schedule: Q01DX Z (ip), vehicle: carboxymethylcellulose (CMC)) is reported as 151 % of control. The T/C (dose: 5.0 mg/kg/injection, schedule: Q01DX Z (ip), vehicle: carboxymethylcellulose (CMC)) was 117 % of control, the T/C (dose: 7.5 mg/kg/injection, schedule: Q01DX Z (ip), vehicle: carboxymethylcellulose (CMC)) was 116 % of control and the T/C (dose: 12.5 mg/kg/injection, schedule: Q01DX Z (ip), vehicle: carboxymethylcellulose (CMC)) was 109 % of control. For the same compound, the T/C (dose: 15.0 mg/kg/injection, schedule: Q01DX Z (ip), vehicle: carboxymethylcellulose (CMC)) was 118 % of control.
C=CC(CN1CC1)OC(C)=O (configuration not stated) was tested, and the T/C (dose: 3.0 mg/kg/injection, schedule: Q01DX Z (ip), vehicle: saline) was 116 % of control, the T/C [1] was 150 % of control and the T/C (dose: 15.0 mg/kg/injection, schedule: Q01DX Z (ip), vehicle: saline) was 91 % of control.
